What was measured:
[1] = test system: white blood cells; test: DHR 123 flow cytometry blood test: RH 123 fluorescence (ROS generation), channel 1 FL1-A; type: cell-based, human
Description: See FIG. 1 and FIG. 2 for exemplary flow diagrams of the method. Whole peripheral blood samples were obtained from subjects and collected in lithium heparin tubes. Samples were diluted 1:100 in electrolyte solution supplemented with 10% heat-inactivated fetal-bovine serum (FBS). Samples were incubated with 5 μg of dihydrorhodamine 123 (DHR 123) at 37° C. under 5% CO2 for 15 min. Cells were treated with 1 μM Phorbol-12-Myristate-13-Acetate (PMA), an exogenous stimulant, or an equal volume of PBS (negative control), and incubated for 30 min to 1 hr.
RBCs of the sample were lysed, fixed, and removed prior to flow cytometry analysis. Briefly, cells were lysed and partially fixed using 3% (v/v) lysis buffer and 1% (v/v) formaldehyde in phosphate-buffered saline (PBS). Samples were incubated for 2 min or until turbidity of the solution was resolved indicating essentially complete lysis of RBCs, and the sample centrifuged at 300×g for 5 min at room temperature (RT). RBC-containing supernatant was discarded, and remaining leukocytes were fixed using 3.7% (v/v) formaldehyde and centrifuged at 300×g at RT for 5 min. Samples were washed twice in FBS and centrifuged at 300×g at RT for 5 min. After washing, the cells were blocked with FC block (Invitrogen, USA) and 2% FBS for 30 min on ice and then incubated with staining buffer containing manufacturer-specified dilutions of fluorophore-conjugated antibodies specific for granulocytes (e.g., neutrophils, basophils, and/or eosinophils) or granulocyte activation (e.g., degranulation). Cells were washed twice and resuspended in PBS prior to analysis using a BD Accuri C6 Flow Cytometer (BD Biosciences, USA). Statistical analysis was performed using the FlowJo v10 (FlowJo, Oregon, USA).
A sample of whole blood was treated with DHIR 123 or mock at 37° C. for 15 min, then treated with phorbol 12-myristate 13-acetate (PMA) and incubated for 25 min. Red and white blood cells were lysed and fixed as described above. Flow cytometry results are shown in FIGS. 3A-3D for negative control (FIG. 3A), DHR 123 only treated control (FIG. 3B), DHR 123+PMA treated (FIG. 3C), as well as an overlap plot of each (FIG. 3D).
Provided below is an exemplary protocol for DHR 123 treatment and cell surface marker staining for DHR 123 flow cytometry blood test. • 1. Obtain a blood sample from a subject; e.g., • 1 mL blood sample for each person was obtained. • 2. Treat with DHR 123 and/or stimulant (e.g., PMA); e.g., • 100 μL whole blood was used for each group: 1) cell only control; 2) DHR 123 loaded cells; 3) DHR 123 loaded cells stimulated with stimulant (e.g., PMA). […] Fix and lyse the cells; e.g., • After stimulant treatment, the cells were fixed and red blood cells were concurrently lysed by adding lysis/fixation solution (e.g., 850 μL (800 μl PBS, 25 μL lyse solution, […])) and incubating 5 min at room temperature. • 4. Prepare cells for staining; e.g., • Cells were centrifuged and the supernatant discarded; • Formaldehyde solution (e.g., 500 μL, 3.7% formaldehyde) was added and incubated for 5 more minutes for fixation; • Cells were centrifuged and the supernatant discarded; • Cells were washed with 350 μL PBS twice, and then centrifuged before discarding the supernatant; • Cells were centrifuged and the supernatant discarded; • 5. Stain the cells; e.g., • 80 μL staining buffer (PBS+0.1% albumin+0.01% tween 20) was added, along with 5 μL of antibody solution for CD16, CD123 and CD193 and the sample incubated for 30 min at room temperature; • 6. Prepare cells for flow cytometry; e.g., • Cells were washed with PBS, centrifuged and the supernatant discarded; • Cells were resuspended in 125 μL PBS for subsequent flow cytometer analysis.
Flow cytometry analysis of human blood samples was performed following exposure to exogenous dust mite (“DM”) stimulant using time course measurements of RH 123 and PI fluorescence. […]

[2] = test system: neutrophils; test: Neutrophil activation: CD16 surface marker fluorescence (channel 2 FL2-A); type: cell-based, human
Description: Dead cells were gated and removed using PI(+) viability marker. The cell surface marker CD33 was used to distinguish the lymphocyte population from the monocyte and granulocyte populations. The cell surface marker CD16 was used to distinguish neutrophil and eosinophil populations from the monocytes and lymphocyte populations. The cell surface marker CD123 was used to distinguish the basophil population. Activated granulocytes were observed using the granulocyte activation surface marker CD63(+). Activated basophil and eosinophil populations were observed using surface markers […], in-tandem with CD63(+). Activated basophils were observed using the surface marker profile of CD63(+)/CD203c(+). Activated eosinophils were observed using the surface marker profile of CD63(+)/CD193(+)/CD203c(+). Activated neutrophils were observed using the surface marker profile of CD63(+)/CD193(−)/CD203(−). Activation of subpopulations was quantified as fold-change compared to the mean of the negative control samples.
Activation of neutrophils from human blood samples following exposure to exogenous stimulants was investigated using flow cytometry analysis of R123 fluorescence, as well as cell surface markers CD16, CD193, and CD123, and side scattering profiles. Density plots for RH 123 (channel 1; FL1-A), CD16 (channel 2; FL2-A), CD193 (channel 3, FL3-A), and CD123 (channel 4, FL4-A) following exposure to dust mite stimulant for 1.5 hours are shown in FIGS. 19A-19L (DHR 123 only: FIGS. 19A-19D; DHR 123+PMA stimulant: FIGS. 19E-19H; and DHR 123+DM stimulant: FIGS. 19I-19L). […] Histograms of CD16 fluorescence at 1.5 hours after stimulant exposure are shown in FIGS. 20A-20C (DHR 123 control: FIG. 20A, MFI=27956; DHR 123+PMA stimulant: FIG. 20B, MFI=11120; and DHR 123+DM stimulant: FIG. 20C, MFI=16358). […]

[3] = after 40-minute stimulation of PMA

In the case of `CCCCCCCCCCCCCC(=O)O[C@@H]1[C@@H](C)[C@@]2(O)[C@@H](C=C(CO)C[C@]3(O)C(=O)C(C)=C[C@@H]23)[C@@H]2C(C)(C)[C@]12OC(C)=O` [PMA, Phorbol-12-Myristate-13-Acetate], the “activation of granulocyte populations (summary of Example 2)” value [1] is reported as “induced the activation of all granulocyte populations”, the “stimulation of lymphocytes (in words)” value ([1]; CD33(−) lymphocyte population (M1)) is reported as “not stimulated” and the “Mean FL1-A (0.5 h)” value ([1]; R123, 0.5 h, PMA, RWP1 2.5 μL, MLK, CUC, BAS 5 μL per 100 μL blood (Table 5)) is reported as 58,792.96. For the same compound, the “Mean FL1-A (1.5 h)” value ([1]; R123, 1.5 h, PMA, RWP1 2.5 μL, MLK, CUC, BAS 5 μL per 100 μL blood (Table 5)) was 168,741.44, the “Mean FL1-A (2.5 h)” value ([1]; R123, 2.5 h, PI stained, PMA, RWP1 2.5 μL, MLK, CUC, BAS 5 μL per 100 μL blood (Table 5)) was 361,510.02 and the “MFI (0.5 h) FL1-A” value ([1]; RH 123, 0.5 h incubation, PMA or DM 2 μL/100 μL blood) was 5,076.27. The “MFI (1.5 h) FL1-A” value ([1]; RH 123, 1.5 h incubation, PMA or DM 2 μL/100 μL blood) was 14,093.83, the “MFI (2.5 h) FL1-A” value ([1]; RH 123, 2.5 h, increased stimulant, 8 μL DM or RWP per 100 μL blood (Table 7)) was 10,553.44 and the “MFI (2.5 h) FL1-A” value ([1]; RH 123, 2.5 h incubation, PI stained, PMA or DM 2 μL/100 μL blood) was 9,353.98. The “RH 123 average intensity of peak” value [1, 3] was “about 10^6 unit”, the “RH 123 average intensity relative to negative control (DHR 123 only)” value [1, 3] was about 500 times and the “RH 123 fluorescence / ROS generation (in words)” value ([1]; vs cells loaded with DHR 123 only) was “strong green fluorescence”. For the same compound, the “CD16 fluorescence signal intensity over time” value ([2]; 1-3 hr incubation, DHR 123 and PMA) was “decreased signal intensity over time”, the “expression of CD16 surface marker (in words)” value ([2]; 1.5 hours after stimulant exposure) was “greatly reduced” and the “mean fluorescent intensity (MFI) of CD16 surface marker (channel 2; FL2-A)” value ([2]; 1.5 hours exposure, DHR 123 only control MFI=27956) was 11120.

Reference: patent publication US20250327794A1, “FLUOROMETRIC METHODS FOR DETECTION OF ALLERGIC SENSITIVITY TO ENVIRONMENTAL, FOODSTUFF, AND MEDICAMENT STIMULANTS” (CELL SCIENCE SYSTEMS CORPORATION, priority 2022, published 2025)
